Results published in ChEMBL document CHEMBL4311992, “Discovery of 3-(((9H-purin-6-yl)amino)methyl)-4,6-dimethylpyridin-2(1H)-one derivatives as novel tubulin polymerization inhibitors for treatment of cancer” (Eur J Med Chem, 2019).
Activity calls are given as the source filed them. No cut-off for these calls is given here.

How the values were obtained:
Tubulin (Homo sapiens) = Tubulin (Homo sapiens) (UniProt P68371+Q9H4B7+P0DPH7+P68366+Q13509+Q71U36+P04350+Q3ZCM7+P07437+P68363+Q9BQE3+Q6PEY2+Q13885+Q9BVA1+Q9BUF5); assay: Disruption of microtubule network in human HCT116 cells assessed as microtubule disorganization at 50 nM for 18 hrs by FITC/DAPI staining-based confocal microscopic analysis; type: cell-based
[1] = biological target: Serine/threonine-protein kinase SBK1 (Homo sapiens) (UniProt Q52WX2); assay: Inhibition of recombinant full-length human SBK1 assessed as residual activity at 10 uM using KKLRRTLSVA as substrate measured after 120 mins in presence of [gamma33P]ATP by scintillation counting method
[2] = biological target: Serine/threonine-protein kinase SIK1 (Homo sapiens) (UniProt P57059); assay: Inhibition of human SIK (1 to 281 residues) using AMARAASAAALARRR as substrate measured after 40 mins in presence of [gamma33P]ATP by scintillation counting method; set-up: scale not given: the % may be the effect or the level left
[3] = biological target: Tyrosine-protein kinase Fyn (Homo sapiens) (UniProt P06241); assay: Inhibition of recombinant full-length human FYN assessed as residual activity at 10 uM using Cdc2 peptide as substrate measured after 40 mins in presence of [gamma33P]ATP by scintillation counting method
[4] = system: Hepatocyte growth factor receptor (Homo sapiens), P08581 [Y1230H]; assay: Inhibition of recombinant human MET A1209G/V1290L/Y1248H mutant (974 to end residues) assessed as residual activity at 10 uM using KKKGQEEEYVFIE as substrate measured after 40 mins in presence of [gamma33P]ATP by scintillation counting method
[5] = biological target: Fibroblast growth factor receptor 1 (Homo sapiens) (UniProt P11362); assay: Inhibition of recombinant human FGFR1 (456 to 765 residues) assessed as residual activity at 10 uM using KKKSPGEYVNIEFG as substrate measured after 40 mins in presence of [gamma33P]ATP by scintillation counting method
Fibroblast growth factor receptor 1 (Homo sapiens), sequence (P11362 22-822 limits assumed): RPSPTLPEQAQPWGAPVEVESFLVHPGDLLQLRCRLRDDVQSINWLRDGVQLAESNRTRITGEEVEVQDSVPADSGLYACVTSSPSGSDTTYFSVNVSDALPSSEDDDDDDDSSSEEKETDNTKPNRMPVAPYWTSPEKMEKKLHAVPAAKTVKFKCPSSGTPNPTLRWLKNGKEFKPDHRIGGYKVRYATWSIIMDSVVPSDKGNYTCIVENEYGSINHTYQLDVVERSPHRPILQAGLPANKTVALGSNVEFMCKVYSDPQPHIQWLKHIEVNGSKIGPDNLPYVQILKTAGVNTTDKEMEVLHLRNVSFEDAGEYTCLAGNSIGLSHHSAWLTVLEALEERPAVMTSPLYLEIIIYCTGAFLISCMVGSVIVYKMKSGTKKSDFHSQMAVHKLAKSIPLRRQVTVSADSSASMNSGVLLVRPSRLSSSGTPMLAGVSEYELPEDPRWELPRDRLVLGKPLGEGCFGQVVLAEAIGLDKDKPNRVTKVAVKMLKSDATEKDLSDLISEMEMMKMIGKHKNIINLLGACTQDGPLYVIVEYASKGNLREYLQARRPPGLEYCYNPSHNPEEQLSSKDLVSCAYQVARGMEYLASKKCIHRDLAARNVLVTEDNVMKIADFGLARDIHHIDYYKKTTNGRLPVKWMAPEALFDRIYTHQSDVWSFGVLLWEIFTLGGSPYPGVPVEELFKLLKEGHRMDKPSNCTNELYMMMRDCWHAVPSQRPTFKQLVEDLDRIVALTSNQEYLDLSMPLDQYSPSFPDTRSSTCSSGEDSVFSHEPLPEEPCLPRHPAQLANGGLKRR

Homo sapiens = species: Homo sapiens; assay: Inhibition of recombinant full-length human PI3K p110delta/p85alpha N253S mutant assessed as residual activity at 10 uM using phosphatidylinositol-4, 5-bisphosphate as substrate measured after 40 mins by fluorescence assay
SW-620 [6] = assay: Induction of apoptosis in human SW620 cells assessed as viable cells at 100 nM measured after 48 hrs by Annexin V-FITC/propidium iodide staining-based flow cytometry (reference value: 94.7%); type: functional; conditions: SW-620, 48 h, read-out: Activity
[7] = biological target: Mitogen-activated protein kinase 12 (Homo sapiens) (UniProt P53778); assay: Inhibition of recombinant full-length human SAPK3 assessed as residual activity at 10 uM using myelin basic protein as substrate measured after 40 mins in presence of [gamma33P]ATP by scintillation counting method
Mitogen-activated protein kinase 12 (Homo sapiens), sequence (P53778 whole entry): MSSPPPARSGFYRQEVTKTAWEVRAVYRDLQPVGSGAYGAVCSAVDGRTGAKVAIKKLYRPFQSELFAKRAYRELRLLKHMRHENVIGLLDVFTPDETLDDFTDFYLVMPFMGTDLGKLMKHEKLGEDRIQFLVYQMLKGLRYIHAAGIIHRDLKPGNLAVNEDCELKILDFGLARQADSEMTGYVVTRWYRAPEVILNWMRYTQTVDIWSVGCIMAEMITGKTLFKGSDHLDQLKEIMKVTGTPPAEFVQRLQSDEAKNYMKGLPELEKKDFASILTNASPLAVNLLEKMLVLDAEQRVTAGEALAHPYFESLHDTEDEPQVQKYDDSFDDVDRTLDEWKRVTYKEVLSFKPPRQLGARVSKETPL

HCT-116 = assay: Induction of apoptosis in human HCT116 cells assessed as late apoptotic cells at 100 nM measured after 48 hrs by Annexin V-FITC/propidium iodide staining-based flow cytometry (reference value: 3.87%); type: functional
[8] = Toxicity in nude BALB/c mouse assessed as change in platelet level at 40 to 80 mg/kg, po once daily for 4 weeks measured post-last dose; type: organism-based; conditions: in vivo, 672 h
[9] = biological target: Ribosomal protein S6 kinase alpha-4 (Homo sapiens) (UniProt O75676); assay: Inhibition of recombinant human MSK2 (2 to end residues) assessed as residual activity at 10 uM using GRPRTSSFAEGKK as substrate measured after 40 mins in presence of [gamma33P]ATP by scintillation counting method
[10] = system: Hepatocyte growth factor receptor (Homo sapiens), P08581 [M1250T]; assay: Inhibition of recombinant human MET A1209G/V1290L/M1268T mutant (974 to end residues) assessed as residual activity at 10 uM using KKKGQEEEYVFIE as substrate measured after 40 mins in presence of [gamma33P]ATP by scintillation counting method
[11] = Toxicity in nude BALB/c mouse assessed as change in globulin level at 40 to 80 mg/kg, po once daily for 4 weeks measured post-last dose; type: organism-based; conditions: in vivo, 672 h
[12] = biological target: Cyclin-dependent kinase 5/CDK5 activator 1 (Homo sapiens) (UniProt Q00535+Q15078); assay: Inhibition of recombinant full-length human CDK5/p25 assessed as residual activity at 10 uM using histone H1 as substrate measured after 40 mins in presence of [gamma33P]ATP by scintillation counting method; type: protein-complex assay
[13] = biological target: MAP/microtubule affinity-regulating kinase 4 (Homo sapiens) (UniProt Q96L34); assay: Inhibition of recombinant full-length human MARK4 assessed as residual activity at 10 uM using KKKVSRSGLYRSPSMPENLNRPR as substrate measured after 40 mins in presence of [gamma33P]ATP by scintillation counting method
[14] = biological target: PAS domain-containing serine/threonine-protein kinase (Homo sapiens) (UniProt Q96RG2); assay: Inhibition of recombinant human PASK (995 to end residues) assessed as residual activity at 10 uM using KKLNRTLSFAEPG as substrate measured after 40 mins in presence of [gamma33P]ATP by scintillation counting method
PAS domain-containing serine/threonine-protein kinase (Homo sapiens), sequence (Q96RG2 whole entry, the tested form may be a part): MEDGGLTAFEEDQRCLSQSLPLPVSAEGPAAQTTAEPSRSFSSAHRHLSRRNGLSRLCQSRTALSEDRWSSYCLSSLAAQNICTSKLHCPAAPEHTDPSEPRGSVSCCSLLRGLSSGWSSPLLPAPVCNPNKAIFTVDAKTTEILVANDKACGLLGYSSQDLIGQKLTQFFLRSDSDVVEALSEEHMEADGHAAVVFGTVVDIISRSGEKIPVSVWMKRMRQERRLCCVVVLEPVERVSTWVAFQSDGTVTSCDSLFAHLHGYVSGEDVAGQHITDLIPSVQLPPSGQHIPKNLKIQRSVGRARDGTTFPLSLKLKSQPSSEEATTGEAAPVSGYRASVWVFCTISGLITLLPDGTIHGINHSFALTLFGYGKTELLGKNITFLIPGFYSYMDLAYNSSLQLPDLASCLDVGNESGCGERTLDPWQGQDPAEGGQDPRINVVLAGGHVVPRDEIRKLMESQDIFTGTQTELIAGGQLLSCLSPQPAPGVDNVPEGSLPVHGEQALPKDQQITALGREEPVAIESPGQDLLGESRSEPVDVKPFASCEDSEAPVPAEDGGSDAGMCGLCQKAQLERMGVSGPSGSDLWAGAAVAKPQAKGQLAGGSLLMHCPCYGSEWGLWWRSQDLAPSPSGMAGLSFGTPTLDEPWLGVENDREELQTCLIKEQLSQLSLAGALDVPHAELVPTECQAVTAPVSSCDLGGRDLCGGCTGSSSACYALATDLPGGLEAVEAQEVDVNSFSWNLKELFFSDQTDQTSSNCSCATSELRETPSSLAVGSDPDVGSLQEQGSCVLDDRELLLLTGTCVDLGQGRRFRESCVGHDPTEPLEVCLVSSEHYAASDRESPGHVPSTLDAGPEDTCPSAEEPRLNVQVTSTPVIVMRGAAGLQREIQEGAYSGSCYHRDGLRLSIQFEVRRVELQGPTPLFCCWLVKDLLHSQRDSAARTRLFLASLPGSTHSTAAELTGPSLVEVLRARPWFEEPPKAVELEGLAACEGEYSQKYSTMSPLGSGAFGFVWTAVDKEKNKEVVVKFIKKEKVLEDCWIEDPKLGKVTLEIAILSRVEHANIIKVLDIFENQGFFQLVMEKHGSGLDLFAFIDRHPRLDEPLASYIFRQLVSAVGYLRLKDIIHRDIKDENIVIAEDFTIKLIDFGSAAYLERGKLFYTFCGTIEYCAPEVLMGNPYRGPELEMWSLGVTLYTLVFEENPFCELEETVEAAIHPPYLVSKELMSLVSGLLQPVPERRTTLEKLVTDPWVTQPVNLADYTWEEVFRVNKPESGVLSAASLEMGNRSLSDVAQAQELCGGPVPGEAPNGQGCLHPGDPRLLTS

[15] = biological target: Insulin receptor-related protein (Homo sapiens) (UniProt P14616); assay: Inhibition of recombinant human IRR (943 to 1266 residues) assessed as residual activity at 10 uM using myelin basic protein as substrate measured after 40 mins in presence of [gamma33P]ATP by scintillation counting method
[16] = biological target: Calcium/calmodulin-dependent protein kinase type 1B (Homo sapiens) (UniProt Q6P2M8); assay: Inhibition of recombinant full-length human CaMK1beta assessed as residual activity at 10 uM using calmodulin as substrate measured after 40 mins in presence of [gamma33P]ATP by scintillation counting method
[17] = biological target: BMP-2-inducible protein kinase (Homo sapiens) (UniProt Q9NSY1); assay: Inhibition of recombinant human BIKepsilon assessed as residual activity at 10 uM using peptide substrate measured after 120 mins in presence of [gamma33P]ATP by scintillation counting method
BMP-2-inducible protein kinase (Homo sapiens), sequence (Q9NSY1 whole entry, looked up): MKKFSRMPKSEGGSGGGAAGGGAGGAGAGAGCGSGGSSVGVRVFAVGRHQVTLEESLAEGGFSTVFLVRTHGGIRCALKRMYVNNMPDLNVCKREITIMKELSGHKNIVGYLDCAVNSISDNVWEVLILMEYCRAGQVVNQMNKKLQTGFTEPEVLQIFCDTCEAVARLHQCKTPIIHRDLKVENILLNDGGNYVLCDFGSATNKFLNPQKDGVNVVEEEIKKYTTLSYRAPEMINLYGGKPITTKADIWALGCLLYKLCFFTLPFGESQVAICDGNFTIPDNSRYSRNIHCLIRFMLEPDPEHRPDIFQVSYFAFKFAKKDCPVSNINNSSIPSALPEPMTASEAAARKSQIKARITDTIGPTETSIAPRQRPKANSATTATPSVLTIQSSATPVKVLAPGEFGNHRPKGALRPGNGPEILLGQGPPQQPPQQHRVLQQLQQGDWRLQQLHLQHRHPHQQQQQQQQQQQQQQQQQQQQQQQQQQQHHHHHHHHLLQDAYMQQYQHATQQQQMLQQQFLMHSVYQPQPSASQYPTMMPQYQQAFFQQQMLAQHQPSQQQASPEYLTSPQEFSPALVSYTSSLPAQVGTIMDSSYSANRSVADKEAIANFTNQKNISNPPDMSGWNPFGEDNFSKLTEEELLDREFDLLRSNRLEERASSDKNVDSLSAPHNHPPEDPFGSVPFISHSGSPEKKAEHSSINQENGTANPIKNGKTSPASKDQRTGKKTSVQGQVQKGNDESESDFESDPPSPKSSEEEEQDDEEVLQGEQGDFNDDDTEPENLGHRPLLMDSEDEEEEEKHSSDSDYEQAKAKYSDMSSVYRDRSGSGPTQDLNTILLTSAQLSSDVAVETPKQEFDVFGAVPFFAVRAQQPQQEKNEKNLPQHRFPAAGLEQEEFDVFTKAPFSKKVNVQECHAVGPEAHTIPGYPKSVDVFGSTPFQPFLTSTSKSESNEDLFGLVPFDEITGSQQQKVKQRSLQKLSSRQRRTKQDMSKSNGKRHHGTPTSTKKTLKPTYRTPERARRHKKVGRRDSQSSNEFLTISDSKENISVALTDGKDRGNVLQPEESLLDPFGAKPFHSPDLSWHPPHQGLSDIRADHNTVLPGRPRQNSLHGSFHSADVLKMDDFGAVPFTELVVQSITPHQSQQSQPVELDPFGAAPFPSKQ

[18] = biological target: Tyrosine-protein kinase Fgr (Homo sapiens) (UniProt P09769); assay: Inhibition of recombinant human FGR (2 to end residues) assessed as residual activity at 10 uM using poly(Glu, Tyr) 4:1 as substrate measured after 40 mins in presence of [gamma33P]ATP by scintillation counting method
[19] = biological target: Tyrosine-protein kinase BTK (Homo sapiens) (UniProt Q06187); assay: Inhibition of full-length recombinant human BTK assessed as residual activity at 10 uM using KVEKIGEGTYGVVYK as substrate measured after 40 mins in presence of [gamma33P]ATP by scintillation counting method
Tyrosine-protein kinase BTK (Homo sapiens), sequence (Q06187 whole entry): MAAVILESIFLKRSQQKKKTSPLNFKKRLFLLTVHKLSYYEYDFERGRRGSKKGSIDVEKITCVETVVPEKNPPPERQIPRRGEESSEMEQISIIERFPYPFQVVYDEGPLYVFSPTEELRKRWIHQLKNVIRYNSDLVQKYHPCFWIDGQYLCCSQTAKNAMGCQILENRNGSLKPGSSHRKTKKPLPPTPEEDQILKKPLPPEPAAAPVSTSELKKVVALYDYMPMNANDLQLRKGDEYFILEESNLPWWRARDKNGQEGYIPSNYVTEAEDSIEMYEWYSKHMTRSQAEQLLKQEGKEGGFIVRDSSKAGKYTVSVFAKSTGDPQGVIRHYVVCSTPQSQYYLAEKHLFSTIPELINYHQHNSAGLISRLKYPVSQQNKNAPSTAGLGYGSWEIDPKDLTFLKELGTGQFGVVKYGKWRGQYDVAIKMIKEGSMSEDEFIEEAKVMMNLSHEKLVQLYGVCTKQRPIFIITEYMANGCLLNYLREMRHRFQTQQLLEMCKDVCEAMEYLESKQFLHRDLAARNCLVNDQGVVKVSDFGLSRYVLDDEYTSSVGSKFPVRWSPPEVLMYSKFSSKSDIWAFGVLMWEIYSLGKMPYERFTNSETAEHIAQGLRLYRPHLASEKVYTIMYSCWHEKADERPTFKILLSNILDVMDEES

[20] = biological target: Tyrosine-protein kinase Lyn (Homo sapiens) (UniProt P07948); assay: Inhibition of recombinant full-length human Lyn assessed as residual activity at 10 uM using poly(Glu, Tyr) 4:1 as substrate measured after 40 mins in presence of [gamma33P]ATP by scintillation counting method
Tyrosine-protein kinase Lyn (Homo sapiens), sequence (P07948 2-512 limits assumed): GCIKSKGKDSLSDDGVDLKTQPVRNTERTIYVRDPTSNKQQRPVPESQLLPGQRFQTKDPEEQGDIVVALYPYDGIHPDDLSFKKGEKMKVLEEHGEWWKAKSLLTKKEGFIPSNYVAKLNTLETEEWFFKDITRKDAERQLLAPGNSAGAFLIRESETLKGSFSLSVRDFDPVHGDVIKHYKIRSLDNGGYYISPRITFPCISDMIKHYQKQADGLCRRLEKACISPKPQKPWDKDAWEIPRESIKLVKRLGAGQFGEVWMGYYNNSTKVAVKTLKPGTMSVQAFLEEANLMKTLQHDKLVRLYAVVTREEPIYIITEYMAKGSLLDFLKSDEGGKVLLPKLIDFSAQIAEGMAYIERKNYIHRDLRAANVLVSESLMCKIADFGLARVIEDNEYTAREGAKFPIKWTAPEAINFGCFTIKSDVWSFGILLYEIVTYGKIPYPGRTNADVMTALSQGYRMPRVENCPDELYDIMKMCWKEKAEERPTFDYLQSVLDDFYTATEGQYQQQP

SW-620 [21] = assay: Antiproliferative activity against human SW620 cells assessed as reduction in cell viability after 72 hrs by MTT assay; type: functional, cell-based; conditions: SW-620, 72 h

In the case of `Cc1cc(C)c(CNc2nc(Cl)nc3c2ncn3C2CCCC2)c(=O)[nH]1`, the Activity (Tubulin (Homo sapiens)) is reported as “Active”, the Activity [1] is reported as 107% and the Activity [2] is reported as 104%. For the same compound, the Activity [3] was 98%, the Activity [4] was 99% and the Activity [5] was 108%. It also gave an Activity (Homo sapiens) of 99.5%, a viability at 0.1 µM (SW-620 [6]) of 66% and an Activity [7] of 96.5%. For the same compound, the Activity (HCT-116) was 42.6%, the Activity [8] was “Non-Toxic” and the Activity [9] was 120%. For the same compound, the Activity [10] was 105%, the Activity [11] was “Non-Toxic” and the Activity [12] was 94%. The Activity [13] was 123%, the Activity [14] was 100% and the Activity [15] was 102%. It also gave an Activity [16] of 107%, an Activity [17] of 83% and an Activity [18] of 94.5%. The Activity [19] was 85%, the Activity [20] was 119% and the IC50 (SW-620 [21]) was 60 nM.
